Blank lines part the entries; values can stand above or below the compound they belong to.
Experiment: xn = mol fraction of the nth substance listed
Details: 101.3 kPa

Compound: c1c[nH]cn1 + CC(C)C[P+](C)(CC(C)C)CC(C)C.Cc1ccc(S(=O)(=O)[O-])cc1
viscosity (303.09 K, x2 = 0.5): 357 mPa·s
viscosity (323.07 K, x2 = 0.5): 100 mPa·s
viscosity (333.11 K, x2 = 0.5): 63 mPa·s
viscosity (343.1 K, x2 = 0.5): 43.3 mPa·s
viscosity (353.08 K, x2 = 0.5): 32.8 mPa·s

Compound: c1c[nH]cn1 + CCCCCC[N+]1(C)CCCC1.O=S(=O)([N-]S(=O)(=O)C(F)(F)F)C(F)(F)F
viscosity (323.15 K, x2 = 0.5): 23.8 mPa·s
viscosity (333.15 K, x2 = 0.5): 16 mPa·s

Compound: c1c[nH]cn1 + CCCC[N+]1(C)CCCC1.O=S(=O)([N-]S(=O)(=O)C(F)(F)F)C(F)(F)F
viscosity (323.15 K, x2 = 0.5): 18.6 mPa·s
viscosity (333.15 K, x2 = 0.5): 13.5 mPa·s
viscosity (343.15 K, x2 = 0.5): 9.7 mPa·s
viscosity (353.15 K, x2 = 0.5): 7.9 mPa·s

viscosity (303.05 K, x1 = 0.5): 176 mPa·s
viscosity (323.05 K, x1 = 0.5): 61 mPa·s
viscosity (333.05 K, x1 = 0.5): 40.2 mPa·s
viscosity (343.05 K, x1 = 0.5): 29.5 mPa·s
Compound: CCCC[P+](CCCC)(CCCC)CCCC.CS(=O)(=O)[O-] + c1c[nH]cn1

— a compilation of properties of binary mixtures (doi:10.1007/s10953-018-0732-1)
